The results in this text go back to US20220081435A1, “ANDROGEN RECEPTOR PROTEIN DEGRADERS” (THE REGENTS OF THE UNIVERSITY OF MICHIGAN, priority 2019, published 2022).

SMILES strings stand for the structures. Where two headings read alike, the source gives them in different places.

The target in the assay is T1, AR protein (Homo sapiens, UniProt P10275, T878A).
T1 construct: The percent AR protein degradation induced by these compounds at various concentrations in LNCaP cells; host or cells: LNCaP
T1 sequence (P10275 1-920 T878A): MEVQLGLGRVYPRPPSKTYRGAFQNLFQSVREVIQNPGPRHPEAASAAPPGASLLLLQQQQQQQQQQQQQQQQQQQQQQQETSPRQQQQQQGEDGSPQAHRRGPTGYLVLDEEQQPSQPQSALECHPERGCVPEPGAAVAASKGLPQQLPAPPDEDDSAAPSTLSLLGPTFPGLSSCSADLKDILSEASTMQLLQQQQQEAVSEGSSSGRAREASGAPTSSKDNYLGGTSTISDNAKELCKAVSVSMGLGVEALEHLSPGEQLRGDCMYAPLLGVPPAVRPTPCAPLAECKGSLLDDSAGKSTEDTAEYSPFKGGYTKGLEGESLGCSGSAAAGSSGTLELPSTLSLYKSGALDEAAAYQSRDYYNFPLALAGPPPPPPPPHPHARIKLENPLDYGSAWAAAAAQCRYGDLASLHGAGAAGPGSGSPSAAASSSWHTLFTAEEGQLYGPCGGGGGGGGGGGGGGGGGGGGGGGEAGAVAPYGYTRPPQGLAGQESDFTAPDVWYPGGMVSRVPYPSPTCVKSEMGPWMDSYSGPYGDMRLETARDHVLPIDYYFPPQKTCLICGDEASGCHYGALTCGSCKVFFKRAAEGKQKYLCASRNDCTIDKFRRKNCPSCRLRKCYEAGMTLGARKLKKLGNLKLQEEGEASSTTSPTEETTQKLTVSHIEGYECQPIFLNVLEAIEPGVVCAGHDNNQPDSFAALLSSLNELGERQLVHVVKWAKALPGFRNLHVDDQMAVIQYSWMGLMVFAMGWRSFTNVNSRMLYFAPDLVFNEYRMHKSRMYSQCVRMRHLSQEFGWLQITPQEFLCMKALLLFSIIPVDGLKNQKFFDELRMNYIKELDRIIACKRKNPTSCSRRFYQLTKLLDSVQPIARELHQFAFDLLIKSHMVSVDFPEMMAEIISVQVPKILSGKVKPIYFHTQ
Kind of assay: AR protein degradation in LNCaP cells (Western blotting). The following applies: for Dmax at 0.1 µM / Dmax at 1 µM / Dmax at 10 µM / Dmax at 0.01 µM / AR degradation (Western blotting, dose-dependent): LNCaP; for Dmax at 0.1 µM / Dmax at 1 µM / Dmax at 10 µM: read-out: % AR protein degradation in LNCaP Cells. It counts as cell-based. The protocol:
Cell lines and Cell Culture: All the LNCaP, VCaP and 22RV1 cells used were purchased from American Type Culture Collection (ATCC). […] All of the cells were supplemented with 10% fetal bovine serum (Invitrogen) at 37° C. in a humidified 5% CO2 incubator.
Western Blotting. Treated cells were lysed by RIPA buffer supplemented with protease and phosphatase inhibitors. […] Software ImageJ was used to quantify the percentage of AR degradation. The net protein bands and loading controls are calculated by deducting the background from the inverted band value. The final relative quantification values are the ratio of net band to net loading control.
On the technique in general: In western blotting, separated proteins are transferred to a membrane and probed.

[1] abbreviates: 0.1 μM, treatment time 6 h, average of three independent experiments.
The mark [2] stands for this setting: 1 μM, treatment time 6 h, average of three independent experiments.
[3] abbreviates: 10 μM, treatment time 6 h, average of three independent experiments.
[4] abbreviates: 0.01 μM, treatment time 6 h, average of three independent experiments.

With `Cc1ncsc1-c1ccc(CNC(=O)C2C[C@@H](O)CN2C(=O)[C@@H](NC(=O)CCCNC(=O)c2ccc(N3C(=S)N(c4ccc(C#N)c(C(F)(F)F)c4)C(=O)C3(C)C)cc2F)C(C)(C)C)cc1` (stereo partly drawn) [Compound 9, (4R)-1-((S)-2-(4-(4-(3-(4-Cyano-3-(trifluoromethyl)phenyl)-5,5-dimethyl-4-oxo-2-thioxoimidazolidin-1-yl)-2-fluorobenzamido)butanamido)-3,3-dimethylbutanoyl)-4-hydroxy-N-(4-(4-methylthiazol-5-yl)benzyl)pyrrolidine-2-carboxamide], the Dmax at 0.1 µM under setting [1] turned out to be 15%. The Dmax at 1 µM under setting [2] came out at 23%. The Dmax at 10 µM under setting [3] worked out at 33%.

`Cc1cc([C@H](C(=O)N2C[C@H](O)C[C@H]2C(=O)N[C@@H](CC(=O)NCCCN2CCN(c3ccc(C#Cc4ccc(N5C(=S)N(c6ccc(C#N)c(C(F)(F)F)c6)C(=O)C5(C)C)cc4)cn3)CC2)c2ccc(-c3scnc3C)cc2)C(C)C)on1` [Compound 27, (2S,4R)—N—((S)-3-((3-(4-(5-((4-(3-(4-Cyano-3-(trifluoromethyl)phenyl)-5,5-dimethyl-4-oxo-2-thioxoimidazolidin-1-yl)phenyl)ethynyl)pyridin-2-yl)piperazin-1-yl)propyl)amino)-1-(4-(4-methylthiazol-5-yl)phenyl)-3-oxopropyl)-4-hydroxy-1-((R)-3-methyl-2-(3-methylisoxazol-5-yl)butanoyl)pyrrolidine-2-carboxamide] returned a Dmax at 0.01 µM under setting [4] of 27%. For the same molecule, the Dmax at 0.1 µM under setting [1] was determined as 75%. Under setting [2], the Dmax at 1 µM was found to be 94%.

With `Cc1ncsc1-c1ccc(CNC(=O)C2C[C@@H](O)CN2C(=O)[C@@H](NC(=O)CCCCNC(=O)c2ccc(N3C(=S)N(c4ccc(C#N)c(C(F)(F)F)c4)C(=O)C3(C)C)cc2F)C(C)(C)C)cc1` (stereo partly drawn) [Compound 10, (4R)-1-((S)-2-(5-(4-(3-(4-Cyano-3-(trifluoromethyl)phenyl)-5,5-dimethyl-4-oxo-2-thioxoimidazolidin-1-yl)-2-fluorobenzamido)pentanamido)-3,3-dimethylbutanoyl)-4-hydroxy-N-(4-(4-methylthiazol-5-yl)benzyl)pyrrolidine-2-carboxamide], under “6 h”, the Dmax at 0.1 µM stood at 16%, the Dmax at 1 µM is 20% and the Dmax at 10 µM came out at 25%.

For the molecule `Cc1ncsc1-c1ccc(CNC(=O)C2C[C@@H](O)CN2C(=O)[C@@H](NC(=O)CCCCCCCCCCCNC(=O)c2ccc(N3C(=S)N(c4ccc(C#N)c(C(F)(F)F)c4)C(=O)C3(C)C)cc2F)C(C)(C)C)cc1` (stereo partly drawn) [Compound 17, (4R)-1-((S)-2-(12-(4-(3-(4-Cyano-3-(trifluoromethyl)phenyl)-5,5-dimethyl-4-oxo-2-thioxoimidazolidin-1-yl)-2-fluorobenzamido)dodecanamido)-3,3-dimethylbutanoyl)-4-hydroxy-N-(4-(4-methylthiazol-5-yl)benzyl)pyrrolidine-2-carboxamide], under setting [1], the Dmax at 0.1 µM is 30%. Also, the Dmax at 1 µM under setting [2] came to 69%. Moreover, the Dmax at 10 µM under setting [3] was determined as 75%.

Under setting [4], `Cc1ncsc1-c1ccc(CNC(=O)C2C[C@@H](O)CN2C(=O)[C@@H](NC(=O)CCCCCCCCCNC(=O)c2ccc(N3C(=S)N(c4ccc(C#N)c(C(F)(F)F)c4)C(=O)C3(C)C)cc2F)C(C)(C)C)cc1` (stereo partly drawn) [Compound 15, (4R)-1-((S)-2-(10-(4-(3-(4-Cyano-3-(trifluoromethyl)phenyl)-5,5-dimethyl-4-oxo-2-thioxoimidazolidin-1-yl)-2-fluorobenzamido)decanamido)-3,3-dimethylbutanoyl)-4-hydroxy-N-(4-(4-methylthiazol-5-yl)benzyl)pyrrolidine-2-carboxamide] displayed a Dmax at 0.01 µM of 10%. In addition, under setting [1], the Dmax at 0.1 µM was determined as 48%. The Dmax at 1 µM under setting [2] worked out at 88%.

`Cc1ncsc1-c1ccc([C@H](C)NC(=O)C2C[C@@H](O)CN2C(=O)[C@@H](NC(=O)CCN2CCN(c3ccc(C#Cc4ccc(N5C(=S)N(c6ccc(C#N)c(C(F)(F)F)c6)C(=O)C5(C)C)cc4)cn3)CC2)C(C)(C)C)cc1` (stereo partly drawn) [Compound 23, (4R)-1-((S)-2-(3-(4-(5-((4-(3-(4-Cyano-3-(trifluoromethyl)phenyl)-5,5-dimethyl-4-oxo-2-thioxoimidazolidin-1-yl)phenyl)ethynyl)pyridin-2-yl)piperazin-1-yl)propanamido)-3,3-dimethylbutanoyl)-4-hydroxy-N—((S)-1-(4-(4-methylthiazol-5-yl)phenyl)ethyl)pyrrolidine-2-carboxamide] gave a Dmax at 0.01 µM under setting [4] of 34%. The Dmax at 0.1 µM under setting [1] came to 51%. For the same molecule, under setting [2], the Dmax at 1 µM is 78%.

For the molecule `Cc1ncsc1-c1ccc(CNC(=O)C2C[C@@H](O)CN2C(=O)[C@@H](NC(=O)CCCN2CCN(c3ccc(C#Cc4ccc(N5C(=S)N(c6ccc(C#N)c(C(F)(F)F)c6)C(=O)C5(C)C)cc4)cn3)CC2)C(C)(C)C)cc1` (stereo partly drawn) [Compound 20, (4R)-1-((S)-2-(4-(4-(5-((4-(3-(4-Cyano-3-(trifluoromethyl)phenyl)-5,5-dimethyl-4-oxo-2-thioxoimidazolidin-1-yl)phenyl)ethynyl)pyridin-2-yl)piperazin-1-yl)butanamido)-3,3-dimethylbutanoyl)-4-hydroxy-N-(4-(4-methylthiazol-5-yl)benzyl)pyrrolidine-2-carboxamide], the Dmax at 0.1 µM under setting [1] worked out at 50%. The Dmax at 1 µM under setting [2] was found to be 80%. For the same molecule, under setting [3], the Dmax at 10 µM stood at 80%.

In turn, `Cc1ncsc1-c1ccc(CNC(=O)C2C[C@@H](O)CN2C(=O)[C@@H](NC(=O)CCCCCCc2ccc(C#Cc3ccc(N4C(=S)N(c5ccc(C#N)c(C(F)(F)F)c5)C(=O)C4(C)C)cc3)cn2)C(C)(C)C)cc1` (stereo partly drawn) [Compound 19, (4R)-1-((S)-2-(7-(5-((4-(3-(4-Cyano-3-(trifluoromethyl)phenyl)-5,5-dimethyl-4-oxo-2-thioxoimidazolidin-1-yl)phenyl)ethynyl)pyridin-2-yl)heptanamido)-3,3-dimethylbutanoyl)-4-hydroxy-N-(4-(4-methylthiazol-5-yl)benzyl)pyrrolidine-2-carboxamide] displayed a Dmax at 0.01 µM under setting [4] of 30%. Also, the Dmax at 0.1 µM under setting [1] was determined as 63%. Under setting [2], the Dmax at 1 µM was determined as 96%.

`Cc1ncsc1-c1ccc(CNC(=O)C2C[C@@H](O)CN2C(=O)[C@@H](NC(=O)CCCCCCCCNC(=O)c2ccc(N3C(=S)N(c4ccc(C#N)c(C(F)(F)F)c4)C(=O)C3(C)C)cc2F)C(C)(C)C)cc1` (stereo partly drawn) [Compound 14, (4R)-1-((S)-2-(9-(4-(3-(4-Cyano-3-(trifluoromethyl)phenyl)-5,5-dimethyl-4-oxo-2-thioxoimidazolidin-1-yl)-2-fluorobenzamido)nonanamido)-3,3-dimethylbutanoyl)-4-hydroxy-N-(4-(4-methylthiazol-5-yl)benzyl)pyrrolidine-2-carboxamide]: the Dmax at 0.01 µM under setting [4] was 15%. Also, the Dmax at 0.1 µM under setting [1] came out at 66%. Further, under setting [2], the Dmax at 1 µM turned out to be 87%.

Regarding `Cc1cc([C@H](C(=O)N2C[C@H](O)C[C@H]2C(=O)N[C@@H](CC(=O)N2CCC(N3CCC(C#Cc4ccc(C(=O)N[C@H]5C(C)(C)[C@H](Oc6ccc(C#N)c(Cl)c6)C5(C)C)cc4)CC3)CC2)c2ccc(-c3scnc3C)cc2)C(C)C)on1` [Compound 32, (2S,4R)—N—((S)-3-(4-((4-(((1r,3r)-3-(3-Chloro-4-cyanophenoxy)-2,2,4,4-tetramethyl-cyclobutyl)carbamoyl)phenyl)ethynyl)-[1,4′-bipiperidin]-1′-yl)-1-(4-(4-methylthiazol-5-yl)phenyl)-3-oxopropyl)-4-hydroxy-1-((R)-3-methyl-2-(3-methylisoxazol-5-yl)butanoyl)pyrrolidine-2-carboxamide], the “% AR protein degradation in LNCaP Cells” value runs as follows: under setting [4], 76%; under setting [1], 98%; under setting [2], 99%. Moreover, the “AR degradation (Western blotting, dose-dependent)” value reads like this: (at 10 nM) “partial AR degradation”; (at both 100 nM and 1 μM) “essentially complete AR degradation”.
